A short description of data set [1]: Plasma concentration (AUC) after oral administration to beagle dogs, after fast or after diet. In kind it is in vivo. The following applies: male, dog, 200 mg/kg, 30 minutes after diet, dogs No. 1-5 and mean in last row, read-out: AUC of tritoqualine concentration in blood for 5 hours. As to the method: Tritoqualine was orally administered to male beagle dogs, […], body weight of 9.5 - 12 kg, Hazleton, after fast or 30 minutes after diet in a dose of 200 mg/kg.
Tritoqualine had been subjected to micronization by a jet mill PJM-100NP, NIHON NEWMATIC KOGYO KK, JAPAN (10 % or more of 3 microns or less, 80 % of 3-15 microns and 10 % or less of 15 microns or more; average of 7 microns) or a screen of 100 mesh under. The obtained particles were suspended in aqueous 1 % Tween 80 solution before use. […]
Before the administration, and 0.5, 1, 2, 3 and 5 hours after the administration, 1 ml of blood was taken out of the vein of front leg, placed into a BHA-coated centrifugal tube "VENOJECT" containing heparin, TERMO INC., and centrifuged. Hundred microliters of the thus obtained plasma was placed into a small glass test tube, which had been coated with 1 microgram of BHA. Into the tube were added 190 microliters of noscapine (100 micrograms in ml of acetonitrile) as an internal standard and 10 microliters of acetonitrile. After blending for one minute, the mixture was centrifuged at 3,000 rpm for 5 minutes. The resulting supernatant was subjected to HPLC under the conditions described below.
The quantitative measurements of tritoqualine in the plasma were carried out according to the internal standard method. The area under curve (AUC) was calculated by the trapezoidal rule. […]

Data set [2] concerns patients suffering from chronic hepatitis. The data set can be described thus: Clinical investigation in chronic hepatitis, oral administration for 8 weeks after every diet. In kind it is in vivo. The following applies: for improvement of liver functions (patients): 8 weeks. As to the method: To patients suffering from chronic hepatitis tritoqualine was administered orally for 8 weeks continuously in a daily dose of 150 or 300 mg after every diet.
Glutamate oxaloacetate transaminase (GOT) and glutamate pyruvate transaminase (GPT) were measured just before the first administration, and 4 and 8 weeks after the first administration.
During the above investigations, there were few cases where slight side effects such as dizziness and nausea, which were suspected to have a relation with the administered drug, appeared : in one case among 65 cases administered in a dose of 150 mg, i.e. 1.5 %; and 8 cases among 137 cases in a dose of 300 mg, i.e. 5.8 %.
When tritoqualine was administered in a dose of 600 mg in the same manner as described above, side effects appeared in 24 cases among 164 cases, i.e. 14.6 %.

For data set [3], the system named is patients with chronic active hepatitis. The note with it: daily dosages 600 to 1600 mg, 13 patients; particularly at 1200-1600 mg/day; cited from earlier work.

Like-named read-outs stand apart in the source and are kept apart here.

Turning to `CCOc1c(N)c2c(c(OCC)c1OCC)C(C1c3c(cc4c(c3OC)OCO4)CCN1C)OC2=O` (stereo not drawn) [tritoqualine, 7-amino-4,5,6-triethoxy-3-(5,6,7,8-tetrahydro-4-methoxy-6-methyl-1,3-dioxolo(4,5-g)isoquinolin-5-yl)phthalide], the AUC in data set [1] (100 mesh under 200 mg/kg oral) stood at 187 ng·h/mL; in data set [1] (Micronisation 200 mg/kg oral) it was 674 ng·h/mL. In addition, the “improvement of liver functions (patients)” value came to 44.3% in data set [2] (daily dose 150 mg oral, 27 among 62 patients) and 61.2% in data set [2] (daily dose 300 mg oral, 79 among 135 patients). Also, the “side effects such as dizziness and nausea (cases)” value in data set [2] (dose of 150 mg, one case among 65 cases) is 1.5%; in data set [2] (dose of 300 mg, 8 cases among 137 cases), 5.8%. Further, the “side effects (cases)” value in data set [2] (dose of 600 mg, 24 cases among 164 cases) stood at 14.6%. In addition, the “fibrosis with cellular infiltration on biopsied liver specimens” value in data set [3] is listed as “reduction of fibrosis”. Further, in data set [3], the liver functions entry was “marked improvement”.

These data come from EP0201359A2, “Use of phthalide isoquinoline derivatives for treatments inhibiting the formation of lipid peroxides” (MITSUBISHI KASEI CORPORATION, priority 1985, dated 1986).
